Laboratory results published in patent US8202514B2, “Bacillus subtilis strain having antagonistic activity for controlling plant diseases” (Korea Research Institute of Chemical Technology, priority 2004, dated 2012).
Like-named read-outs stand apart in the source and are kept apart here.

Tests used:
[1] = test system: powdery mildew pathogen, Blumeria graminis f. sp. hordei; assay: In vivo control of barley powdery mildew on barley seedlings
[2] = test system: late blight pathogen, Phytophthora infestans; type: in vivo
[3] = test system: gray mold pathogen, Bouytis cinerea; type: in vivo
[4] = test system: anthracnose pathogen, Colletotrichum orbiculare; type: in vivo
[5] = test system: powdery mildew pathogen, Sphaerotheca fidigenea; assay: In vivo control of cucumber powdery mildew (natural infestation in greenhouse); conditions: for Control value (%) The 1st Exp. cucumber powdery mildew: 1st experiment; for Control value (%) The 2nd Exp. cucumber powdery mildew: 2nd experiment
Protocol: The culture solution was diluted with distilled water at a ratio of 1:10, 1:25, 1:50, 1:100 and 1:200. Each diluent was mixed with 250 μg/ml of Tween 20, and sprayed to leaves of the 7th leaf stage of cucumbers.
Topseed (Greenbiotech Co., Ltd.) known as a microbial fungicide for controlling powdery mildew was diluted with distilled water at a ratio of 1:10, 1:25, 1:50, 1:100 and 1:200, and each diluent and flusilazole (Dongbu Hannong Chemical Co., Ltd.) as a positive control were sprayed to cucumber plants to prepare a comparative group. The cucumbers treated with Tween 20 solution alone were employed as a control group.
1 week after spraying, each diluent of the culture solution and comparative sample was sprayed to the target cucumbers second time. 1 week after further spraying, effect on controlling powdery mildew was assessed according to the same method as described in Example 3. The cucumbers were allowed to be infested naturally from a resident powdery mildew pathogen, Sphaerotheca fidigenea in a greenhouse.

## CCCCNC(=O)n1c(NC(=O)OC)nc2ccccc21 [Benomyl, benomyl]
[1]; 1 μg/ml
  Control value (%) Barley powdery mildew: 52%
[1]; 100 μg/ml
  Control value (%) Barley powdery mildew: 100%

## N#Cc1c(Cl)c(Cl)c(Cl)c(C#N)c1Cl [Chlrothalonil, chlrothalonil]
[2]; 50 μg/ml
  Control value (%) Tomato late blight: 89%
[2]; 100 μg/ml
  Control value (%) Tomato late blight: 100%

## CN(C)S(=O)(=O)N(SC(F)(Cl)Cl)c1ccccc1 [Dichlofluanid, dichlofluanid]
[3]; 40 μg/ml
  Control value (%) Tomato gray mold: 86%
[3]; 80 μg/ml
  Control value (%) Tomato gray mold: 97%

## N#Cc1sc2c(=O)c3ccccc3c(=O)c=2sc1C#N [Dithianon, dithianon]
[4]; 10 μg/ml
  Control value (%) Cucumber anthracnose: 80%
[4]; 100 μg/ml
  Control value (%) Cucumber anthracnose: 100%

## C[Si](Cn1cncn1)(c1ccc(F)cc1)c1ccc(F)cc1 [Flusilazole, flusilazole]
[5]; 10 μg/ml
  Control value (%) The 1st Exp. cucumber powdery mildew: 97%
  Control value (%) The 2nd Exp. cucumber powdery mildew: 97%
[5]; 30 μg/ml
  Control value (%) The 1st Exp. cucumber powdery mildew: 99%
  Control value (%) The 2nd Exp. cucumber powdery mildew: 99%
